From the NIST ThermoML archive (doi:10.1016/j.fluid.2010.10.028)

Test: xn = mol fraction of the nth substance listed
Settings: Liquid, Vibrating tube method

CC(C)=O [acetone] + CCCCCCC
Settings | mass density [kg/m3]
357.56 K, 109800 kPa, x1 = 0.492 | 744.86
357.56 K, 109860 kPa, x1 = 0.611 | 755.29
357.56 K, 114650 kPa, x1 = 0.4 | 797.46
357.56 K, 114650 kPa, x1 = 0.8992 | 797.46
357.56 K, 114760 kPa, x1 = 0.492 | 747.47
357.56 K, 114840 kPa, x1 = 0.801 | 781.49
357.56 K, 114860 kPa, x1 = 0.611 | 758
357.56 K, 119620 kPa, x1 = 0.4 | 800.25
357.56 K, 119620 kPa, x1 = 0.8992 | 800.25
357.56 K, 119840 kPa, x1 = 0.611 | 760.62
357.56 K, 119850 kPa, x1 = 0.492 | 750.09
357.56 K, 124590 kPa, x1 = 0.4 | 802.96
357.56 K, 124590 kPa, x1 = 0.8992 | 802.96
357.56 K, 124850 kPa, x1 = 0.492 | 752.62
357.56 K, 124850 kPa, x1 = 0.611 | 763.18
357.56 K, 124850 kPa, x1 = 0.801 | 786.88
357.56 K, 129540 kPa, x1 = 0.4 | 805.62
357.56 K, 129540 kPa, x1 = 0.8992 | 805.62
357.56 K, 129840 kPa, x1 = 0.492 | 755.04
357.56 K, 129850 kPa, x1 = 0.611 | 765.68
357.57 K, 19850 kPa, x1 = 0.801 | 705.47
357.57 K, 24850 kPa, x1 = 0.801 | 711.56
357.57 K, 29850 kPa, x1 = 0.801 | 717.2
357.57 K, 39860 kPa, x1 = 0.801 | 727.56
357.57 K, 44860 kPa, x1 = 0.801 | 732.3
357.57 K, 49830 kPa, x1 = 0.801 | 736.79
357.57 K, 54840 kPa, x1 = 0.801 | 741.09
357.57 K, 79870 kPa, x1 = 0.801 | 760
357.57 K, 109760 kPa, x1 = 0.801 | 778.61
357.57 K, 119850 kPa, x1 = 0.801 | 784.21
357.57 K, 129840 kPa, x1 = 0.801 | 789.47
367.47 K, 1110 kPa, x1 = 0.7024 | 653.24
367.47 K, 4830 kPa, x1 = 0.7024 | 660.5
367.47 K, 9820 kPa, x1 = 0.7024 | 669.16
367.47 K, 14810 kPa, x1 = 0.7024 | 676.86
367.47 K, 19800 kPa, x1 = 0.7024 | 683.87
367.47 K, 24870 kPa, x1 = 0.7024 | 690.44
367.47 K, 29900 kPa, x1 = 0.7024 | 696.42
367.47 K, 29980 kPa, x1 = 0.4 | 723.61
367.47 K, 29980 kPa, x1 = 0.8992 | 723.61
367.47 K, 34870 kPa, x1 = 0.7024 | 701.98
367.47 K, 39870 kPa, x1 = 0.7024 | 707.22
367.47 K, 44860 kPa, x1 = 0.7024 | 712.14
367.47 K, 49850 kPa, x1 = 0.7024 | 716.78
367.47 K, 54840 kPa, x1 = 0.7024 | 721.18
367.47 K, 59880 kPa, x1 = 0.4 | 753.02
367.47 K, 59880 kPa, x1 = 0.8992 | 753.02
367.47 K, 64830 kPa, x1 = 0.7024 | 729.41
367.47 K, 69810 kPa, x1 = 0.7024 | 733.25
367.47 K, 79780 kPa, x1 = 0.7024 | 740.5
367.47 K, 89740 kPa, x1 = 0.7024 | 747.21
367.47 K, 94830 kPa, x1 = 0.7024 | 750.48
367.47 K, 99830 kPa, x1 = 0.7024 | 753.58
367.47 K, 104830 kPa, x1 = 0.7024 | 756.58
367.47 K, 109810 kPa, x1 = 0.7024 | 759.49
367.47 K, 114820 kPa, x1 = 0.7024 | 762.32
367.47 K, 119810 kPa, x1 = 0.7024 | 765.08
367.47 K, 124820 kPa, x1 = 0.7024 | 767.78
367.47 K, 129810 kPa, x1 = 0.7024 | 770.39
367.48 K, 1150 kPa, x1 = 0.611 | 644.69
367.48 K, 5040 kPa, x1 = 0.4 | 687.92
367.48 K, 5040 kPa, x1 = 0.8992 | 687.92
367.48 K, 9850 kPa, x1 = 0.611 | 660.49
367.48 K, 10030 kPa, x1 = 0.4 | 696.45
367.48 K, 10030 kPa, x1 = 0.8992 | 696.45
367.48 K, 15010 kPa, x1 = 0.4 | 704.13
367.48 K, 15010 kPa, x1 = 0.8992 | 704.13
367.48 K, 19860 kPa, x1 = 0.611 | 675.16
367.48 K, 20000 kPa, x1 = 0.4 | 711.11
367.48 K, 20000 kPa, x1 = 0.8992 | 711.11
367.48 K, 24860 kPa, x1 = 0.611 | 681.55
367.48 K, 25000 kPa, x1 = 0.4 | 717.58
367.48 K, 25000 kPa, x1 = 0.8992 | 717.58
367.48 K, 29870 kPa, x1 = 0.611 | 687.49
367.48 K, 34860 kPa, x1 = 0.611 | 693
367.48 K, 39940 kPa, x1 = 0.4 | 734.49
367.48 K, 39940 kPa, x1 = 0.8992 | 734.49
367.48 K, 44850 kPa, x1 = 0.611 | 703
367.48 K, 44920 kPa, x1 = 0.4 | 739.45
367.48 K, 44920 kPa, x1 = 0.8992 | 739.45
367.48 K, 49910 kPa, x1 = 0.4 | 744.24
367.48 K, 49910 kPa, x1 = 0.8992 | 744.24
367.48 K, 49940 kPa, x1 = 0.611 | 707.7
367.48 K, 54900 kPa, x1 = 0.4 | 748.72
367.48 K, 54900 kPa, x1 = 0.8992 | 748.72
367.48 K, 54920 kPa, x1 = 0.611 | 712.06
367.48 K, 59830 kPa, x1 = 0.7024 | 725.38
367.48 K, 64860 kPa, x1 = 0.4 | 757.11
367.48 K, 64860 kPa, x1 = 0.8992 | 757.11
367.48 K, 64900 kPa, x1 = 0.611 | 720.16
367.48 K, 69840 kPa, x1 = 0.4 | 761.04
